Measured values published in PubChem BioAssay (NCI).
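At the GI50, growth is halved. TGI: concentration producing complete growth inhibition.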

Assays:
Test in all cases: inhibition of tumour cell growth, NCI panel, 384-well format
[1] = tested on: NCI-H322M lung
[2] = tested on: SF-268 CNS
[3] = tested on: KM12 colon
[4] = tested on: EKVX NSCLC
[5] = tested on: ACHN renal
[6] = tested on: SF-539 CNS
[7] = tested on: SW-620 colon
[8] = tested on: MDA-MB-435 melanoma
[9] = tested on: SK-MEL-2 melanoma
[10] = tested on: SR leukemia
[11] = tested on: SK-MEL-5 melanoma
[12] = tested on: RPMI-8226 leukemia
[13] = tested on: NCI/ADR-RES ovarian

Row | Structure (SMILES) | GI50 [1] [µM] | TGI [1] [µM] | GI50 [2] [µM] | TGI [2] [µM] | GI50 [3] [µM] | TGI [3] [µM] | GI50 [4] [µM] | TGI [4] [µM] | GI50 [5] [µM] | TGI [5] [µM] | GI50 [6] [µM] | TGI [6] [µM] | GI50 [7] [µM] | TGI [7] [µM] | GI50 [8] [µM] | TGI [8] [µM] | GI50 [9] [µM] | TGI [9] [µM] | GI50 [10] [µM] | TGI [10] [µM] | also measured
1 | C#Cc1cccc(Nc2ncnc3cc(OCCOC)c(OCCOC)cc23)c1 | 0.193 | 1.66 | 21.2 | > 72.3 | > 27.8 | > 100 | 1.93 | > 100 | 0.329 | > 25.8 | 39.3 | > 100 | > 100 | > 100 | > 100 | > 100 | 8.78 | > 100 | 21.4 | > 67.5 | GI50 [11]: 1.94 µM; TGI [11]: > 26.3 µM; GI50 [12]: 7.94 µM; TGI [12]: > 88.4 µM; GI50 [13]: 12.6 µM; TGI [13]: > 100 µM
2 | CC(=O)OC[C@H]1O[C@@H](n2ccc(=O)[nH]c2=O)[C@H](OC(C)=O)[C@@H]1OC(C)=O | > 100 | > 100 | > 100 | > 100 | > 100 | > 100 | > 100 | > 100 | > 100 | > 100 | > 100 | > 100 | > 100 | > 100 | > 100 | > 100 | > 100 | > 100 | > 100 | > 100 | GI50 [11]: > 100 µM; TGI [11]: > 100 µM; GI50 [12]: > 100 µM; TGI [12]: > 100 µM; GI50 [13]: > 100 µM; TGI [13]: > 100 µM
